Results: patent US20200069648A1, “HALOALLYLAMINE PYRAZOLE DERIVATIVE INHIBITORS OF LYSYL OXIDASES AND USES THEREOF” (Pharmaxis Ltd., priority 2017, published 2020)
Where a name gives a salt, the structure may show the parent alone.

Experiments:
Recombinant human MAO-B = target: T1, Recombinant human MAO-B (Homo sapiens, UniProt P27338); experiment: Human recombinant MAO-B inhibition; assay type: biochemical; conditions: benzylamine 100 μM
T1 construct: purchased Sigma Aldrich
T1 sequence (P27338 1-520): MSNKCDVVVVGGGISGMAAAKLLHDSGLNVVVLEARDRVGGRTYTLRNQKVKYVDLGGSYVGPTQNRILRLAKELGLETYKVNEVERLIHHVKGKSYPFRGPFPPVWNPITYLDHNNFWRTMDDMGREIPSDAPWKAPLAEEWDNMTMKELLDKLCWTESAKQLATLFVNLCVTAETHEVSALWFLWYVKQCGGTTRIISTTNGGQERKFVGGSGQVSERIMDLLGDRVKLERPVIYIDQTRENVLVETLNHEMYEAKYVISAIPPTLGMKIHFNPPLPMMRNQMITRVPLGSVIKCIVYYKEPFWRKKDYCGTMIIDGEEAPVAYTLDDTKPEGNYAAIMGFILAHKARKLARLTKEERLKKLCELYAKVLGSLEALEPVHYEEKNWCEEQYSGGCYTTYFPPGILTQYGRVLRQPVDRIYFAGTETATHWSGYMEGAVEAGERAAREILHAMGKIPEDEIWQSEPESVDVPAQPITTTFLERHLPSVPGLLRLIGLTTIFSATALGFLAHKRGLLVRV
Experimental: Method to Determine the Ability of Compounds of Formula I to Inhibit Human Recombinant MAO-B
The specificity of the compounds of this invention was tested by determining their ability to inhibit MAO-B activities in vitro. Recombinant human MAO-B (0.06 mg/mL; Sigma Aldrich) was used as source of MAO-B enzyme activities. The assay was performed in a similar way as for human SSAO/VAP-1 (Example 46) except, the substrate benzylamine was used at 100 μM.

Human LOXL2 = target: T2, Human LOXL2 (Homo sapiens, UniProt Q9Y4K0); experiment: LOXL2 amine oxidase inhibition, peroxidase-coupled Amplex Red assay; assay type: biochemical; conditions: 30 min preincubation at 37° C., putrescine substrate
T2 sequence (Q9Y4K0 26-774): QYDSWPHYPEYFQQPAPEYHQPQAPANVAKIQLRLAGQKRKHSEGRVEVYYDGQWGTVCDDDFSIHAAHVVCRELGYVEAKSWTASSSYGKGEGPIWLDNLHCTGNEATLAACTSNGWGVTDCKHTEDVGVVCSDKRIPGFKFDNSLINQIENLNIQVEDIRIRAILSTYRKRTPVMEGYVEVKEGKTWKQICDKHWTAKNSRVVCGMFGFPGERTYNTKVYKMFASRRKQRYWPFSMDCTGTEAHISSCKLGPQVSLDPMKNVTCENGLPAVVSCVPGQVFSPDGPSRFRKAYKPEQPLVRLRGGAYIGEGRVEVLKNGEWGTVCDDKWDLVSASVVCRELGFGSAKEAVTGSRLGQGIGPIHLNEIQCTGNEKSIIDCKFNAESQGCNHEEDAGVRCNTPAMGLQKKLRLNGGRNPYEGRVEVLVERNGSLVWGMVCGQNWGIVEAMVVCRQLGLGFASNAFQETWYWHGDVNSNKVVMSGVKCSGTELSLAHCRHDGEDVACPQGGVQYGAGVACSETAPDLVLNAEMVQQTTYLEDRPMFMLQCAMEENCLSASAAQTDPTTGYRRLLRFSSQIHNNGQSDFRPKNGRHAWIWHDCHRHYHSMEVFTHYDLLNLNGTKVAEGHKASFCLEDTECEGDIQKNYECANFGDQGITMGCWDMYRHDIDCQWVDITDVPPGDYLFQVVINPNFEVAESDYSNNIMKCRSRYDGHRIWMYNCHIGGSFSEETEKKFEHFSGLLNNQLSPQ
Procedure, shortened: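 Enzyme preincubated 30 min at 37 °C with compound (11-point curve) in 1.2 M urea, 50 mM borate pH 8.2 plus 1 μM mofegiline and 0.5 mM pargyline; putrescine at twice KM (10 mM for LOXL2), Amplex Red and HRP added. Fluorescence (565/590 nm) read every 2.5 min for 30 min; IC50 from kinetic slopes.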

[1] = system: metastatic oral cancer cell line expressing DsRed; experiment: Oral metastatic cancer mouse model; assay type: in vivo; conditions: mice, 0.1-100 mg/Kg, up to five weeks; compared with vehicle-treated group
Experimental: An analysis of the use of LOXL2 inhibitors to treat cancer diseases is performed through the use of an oral metastatic cancer mouse model.
Mice are injected with a metastatic oral cancer cell line expressing DsRed for tracking. Mice are monitored weekly by in vivo imaging (IVIS) based on DsRed expression and by caliper measurements of mouse tongues over a period of up to five weeks. Compound 15 is given 0.1-100 mg/Kg throughout the period of the experimental procedure or only two times a week throughout the entire study.

Row | Compound | IC50 (Recombinant human MAO-B) | IC50 (Human LOXL2) | spread of metastasis [1] | tongue cancer volume (tongue volume) [1]
1 | CCc1nn(C/C(F)=C/CN)c(CC)c1Cc1ccc(S(=O)(=O)N(C)C)cc1 [Compound 13, (Z)-4-((1-(4-amino-2-fluorobut-2-en-1-yl)-3,5-diethyl-1H-pyrazol-4-yl)methyl)-N,N-dimethyl benzenesulfonamide hydrochloride] | > 30 µM | < 1 µM | – | –
2 | Cc1nn(C/C(F)=C/CN)c(C)c1Cc1ccc(S(=O)(=O)N(C)C)c(Cl)c1 [Compound 15, (Z)-4-((1-(4-amino-2-fluorobut-2-en-1-yl)-3,5-dimethyl-1H-pyrazol-4-yl)methyl)-2-chloro-N,N-dimethylbenzenesulfonamide hydrochloride] | > 30 µM | < 1 µM | significant reduction | significant reduction
3 | CNS(=O)(=O)c1ccc(Cn2nc(C)c(C/C(F)=C/CN)c2C)c(Cl)c1 [Compound 20, (Z)-4-((4-(4-amino-2-fluorobut-2-en-1-yl)-3,5-dimethyl-1H-pyrazol-1-yl)methyl)-3-chloro-N-methylbenzenesulfonamide hydrochloride] | > 30 µM | < 1 µM | – | –
4 | Cc1nn(Cc2ccc(S(C)(=O)=O)cc2Cl)c(C)c1C/C(F)=C/CN [Compound 21, (Z)-4-(1-(2-chloro-4-(methylsulfonyl)benzyl)-3,5-dimethyl-1H-pyrazol-4-yl)-3-fluorobut-2-en-1-amine hydrochloride] | > 30 µM | < 1 µM | – | –
5 | CNS(=O)(=O)c1ccc(Cn2nc(C)c(C/C(F)=C/CN)c2C)cc1Cl [Compound 22, (Z)-4-((4-(4-amino-2-fluorobut-2-en-1-yl)-3,5-dimethyl-1H-pyrazol-1-yl)methyl)-2-chloro-N-methylbenzenesulfonamide hydrochloride] | > 30 µM | < 1 µM | – | –
6 | CNS(=O)(=O)c1ccc(Cn2nc(C)c(C/C(F)=C/CN)c2C)c(C(F)(F)F)c1 [Compound 23, (Z)-4-((4-(4-amino-2-fluorobut-2-en-1-yl)-3,5-dimethyl-1H-pyrazol-1-yl)methyl)-N-methyl-3-(trifluoromethyl)benzenesulfonamide hydrochloride] | > 30 µM | < 1 µM | – | –
7 | Cc1nn(Cc2ccc(S(C)(=O)=O)c(Cl)c2)c(C)c1C/C(F)=C/CN [Compound 24, (Z)-4-(1-(3-chloro-4-(methylsulfonyl)benzyl)-3,5-dimethyl-1H-pyrazol-4-yl)-3-fluorobut-2-en-1-amine hydrochloride] | > 30 µM | < 1 µM | – | –
8 | Cc1nn(Cc2cc(F)c(S(=O)(=O)N(C)C)cc2F)c(C)c1C/C(F)=C/CN [Compound 25, (Z)-4-((4-(4-amino-2-fluorobut-2-en-1-yl)-3,5-dimethyl-1H-pyrazol-1-yl)methyl)-2,5-difluoro-N,N-dimethylbenzenesulfonamide hydrochloride] | > 30 µM | < 1 µM | – | –
9 | CNS(=O)(=O)c1cc(F)c(Cn2nc(C)c(C/C(F)=C/CN)c2C)cc1F [Compound 26, (Z)-4-((4-(4-amino-2-fluorobut-2-en-1-yl)-3,5-dimethyl-1H-pyrazol-1-yl)methyl)-2,5-difluoro-N-methylbenzenesulfonamide hydrochloride] | > 30 µM | < 1 µM | – | –
10 | CCOC(=O)c1nn(C/C(F)=C/CN)c(C)c1Cc1ccc(S(=O)(=O)N(C)C)cc1 [Compound 28, (Z)-ethyl 1-(4-amino-2-fluorobut-2-enyl)-4-(4-(N,N-dimethylsulfamoyl)benzyl)-5-methyl-1H-pyrazole-3-carboxylate hydrochloride] | > 30 µM | < 1 µM | – | –
11 | Cc1nn(C/C(F)=C/CN)c(C(=O)N(C)C)c1Cc1ccc(S(=O)(=O)N(C)C)cc1 [Compound 29, (Z)-1-(4-amino-2-fluorobut-2-enyl)-4-(4-(N,N-dimethylsulfamoyl)benzyl)-N,N,3-trimethyl-1H-pyrazole-5-carboxamide hydrochloride] | > 30 µM | < 1 µM | – | –
12 | Cc1c(Cc2ccc(S(=O)(=O)N(C)C)cc2)c(C(=O)O)nn1C/C(F)=C/CN [Compound 31, (Z)-1-(4-amino-2-fluorobut-2-enyl)-4-(4-(N,N-dimethylsulfamoyl)benzyl)-5-methyl-1H-pyrazole-3-carboxylic acid hydrochloride] | > 30 µM | < 1 µM | – | –
13 | Cc1c(Cc2ccc(S(=O)(=O)N(C)C)cc2)c(C(=O)N(C)C)nn1C/C(F)=C/CN [Compound 32, (Z)-1-(4-amino-2-fluorobut-2-enyl)-4-(4-(N,N-dimethylsulfamoyl)benzyl)-N,N,5-trimethyl-1H-pyrazole-3-carboxamide hydrochloride] | > 30 µM | < 1 µM | – | –

More lines, main results first:

Row | IC50 (Recombinant human MAO-B) | IC50 (Human LOXL2) | Compound | spread of metastasis [1] | tongue cancer volume (tongue volume) [1]
14 | > 30 µM | < 10 µM | Cc1nn(C/C(F)=C/CN)c(C)c1Cc1ccc(C(=O)N(C)C)cc1 [Compound 14, (Z)-4-((1-(4-amino-2-fluorobut-2-en-1-yl)-3,5-dimethyl-1H-pyrazol-4-yl)methyl)-N,N-dimethylbenzamide hydrochloride] | – | –
15 | > 30 µM | < 1 µM | Cc1nn(C/C(F)=C/CN)c(C)c1Cc1ccc(S(C)(=O)=O)c(Cl)c1 [Compound 16, (Z)-4-(4-(3-chloro-4-(methylsulfonyl)benzyl)-3,5-dimethyl-1H-pyrazol-1-yl)-3-fluorobut-2-en-1-amine hydrochloride] | – | –
16 | > 30 µM | < 1 µM | Cc1nn(C/C(F)=C/CN)c(C)c1Cc1ccc(S(=O)(=O)N(C)C)c(OC(F)(F)F)c1 [Compound 17, (Z)-4-((1-(4-amino-2-fluorobut-2-en-1-yl)-3,5-dimethyl-1H-pyrazol-4-yl)methyl)-N,N-dimethyl-2-(trifluoromethoxy)benzenesulfonamide hydrochloride] | – | –
17 | > 30 µM | < 1 µM | Cc1nn(C/C(F)=C/CN)c(C)c1Cc1ccc(S(=O)(=O)N(C)C)c(C(F)(F)F)c1 [Compound 18, (Z)-4-((1-(4-amino-2-fluorobut-2-en-1-yl)-3,5-dimethyl-1H-pyrazol-4-yl)methyl)-N,N-dimethyl-2-(trifluoromethyl)benzenesulfonamide hydrochloride] | – | –
18 | > 30 µM | < 1 µM | Cc1nn(C/C(F)=C/CN)c(C)c1Cc1cc(F)c(S(=O)(=O)N(C)C)cc1F [Compound 19, (Z)-4-((1-(4-amino-2-fluorobut-2-en-1-yl)-3,5-dimethyl-1H-pyrazol-4-yl)methyl)-2,5-difluoro-N,N-dimethylbenzenesulfonamide hydrochloride] | – | –
19 | > 30 µM | < 1 µM | CCOC(=O)c1c(Cc2ccc(S(=O)(=O)N(C)C)cc2)c(C)nn1C/C(F)=C/CN [Compound 27, (Z)-ethyl 1-(4-amino-2-fluorobut-2-enyl)-4-(4-(N,N-dimethylsulfamoyl)benzyl)-3-methyl-1H-pyrazole-5-carboxylate hydrochloride] | – | –
20 | > 30 µM | < 1 µM | Cc1nn(C/C(F)=C/CN)c(C(=O)O)c1Cc1ccc(S(=O)(=O)N(C)C)cc1 [Compound 30, (Z)-1-(4-amino-2-fluorobut-2-enyl)-4-(4-(N,N-dimethylsulfamoyl)benzyl)-3-methyl-1H-pyrazole-5-carboxylic acid hydrochloride] | – | –
